Data reported in patent US20150051296A1, “USE OF FATTY ACID TO REDUCE SKIN IRRITATION ASSOCIATED WITH RETINOID THERAPY” (Access Business Group Internaional LLC, priority 2013, published 2015).

What was measured:
[1] = system: peroxisome proliferator activated receptor (PPAR); assay: PPAR luciferase reporter assay in stably transfected Chinese hamster ovary cells; format: cell-based; details: about 0 to about 100 μg/mL, FIG. 5
Description: Chinese hamster ovary cells were stably transfected with peroxisome proliferator activated receptor (PPAR) construct and luciferase reporter vector. […] The response was measured in relative light units (RLUs).

[2] = system: retinoic acid response element (RARE) construct; assay: RARE reporter assay in stably transfected human kidney cells; format: cell-based; details: oleic acid about 0, 25, 50, 100, 200 μM, FIG. 3
Description: Human kidney cells were stably transfected with a retinoic acid response element (RARE) construct. The transfected cells were exposed to increasing amounts of retinoic acid (from about 0.005 μM to about 10 μM) in the presence of increasing amounts of oleic acid (about 0 μM, about 25 μM, about 50 μM, about 100 μM, and about 200 μM), and the response was measured in relative light units (RLUs).

CCCCCCCC/C=C\CCCCCCCC(=O)O [oleic acid]
response (RLUs) of PPAR-transfected cells [1]: responded in a dose dependent manner
effect of the fatty acid on retinoic acid activation of the retinoic acid receptor [2]: did not affect retinoic acid activation of the retinoic acid receptor
